Laboratory results as given in patent US20060160070A1, “Association-based epitome design” (Microsoft Corporation, priority 2004, published 2006).

Experiments:
HLA B*1501 [1] = molecular target: T1, HLA B*1501 (Homo sapiens, UniProt P01889, A329T/A93T/A95T/C349S/D201E/D98Y/E187L/E204Q/E69M/E70A/K202T/N87E/Q94N/R155S/R180W/S121R/S35A/S48A/V306I/V36M/Y140S/Y91S); assay: Multi-parametric analysis iScore; assay type: binding; parameters: scale not given here; details: index integrating t1/2 and ED50
T1 construct: purchased
Method: (§1) Multi-parametric analysis was performed to integrate the half-life (t½) and ED50 parameters in an index (iScore). The iScore (Table 13) reflects the capability of a peptide to reconstitute with MHC molecules in a stable complex, defining its overall level of binding.

HLA A*0201 [2] = molecular target: T2, HLA A*0201 (Homo sapiens, UniProt P04439, D140Y/D185E/D98H/E176V/E277Q/G131W/G231S/I119V/I121R/I166T/I218V/L300P/L318F/N151K/N90K/P208A/P217A/Q86G/Q94H/R138H/R169H/T345S); assay: Multi-parametric analysis iScore; assay type: binding; parameters: scale not given here; details: index integrating t1/2 and ED50
Method: as §1

HLA A*2402 [3] = molecular target: T3, HLA A*2402 (Homo sapiens, UniProt P04439, D101N/D140Y/D185E/E176V/E190D/F33S/G103R/G107R/I119L/I121M/I306V/K335N/L105A/L180Q/L300P/N151K/N90K/Q86E/Q94H/R106L/R138H/R89G/T104I/T345S/V100E/W191G/Y123F); assay: Multi-parametric analysis iScore; assay type: binding; parameters: scale not given here; details: index integrating t1/2 and ED50
Method: as §1

HLA A*1101 [4] = molecular target: T4, HLA A*1101 (Homo sapiens, UniProt P04439, A114D/D185E/E176A/F33Y/L180Q/S129P/T187R); assay: Multi-parametric analysis iScore; assay type: binding; parameters: scale not given here; details: index integrating t1/2 and ED50
T4 construct: purchased
Method: as §1

HLA A*0301 [5] = molecular target: T5, HLA A*0301 (Homo sapiens, UniProt P04439); assay: Multi-parametric analysis iScore; assay type: binding; parameters: scale not given here; details: index integrating t1/2 and ED50
T5 construct: purchased
Method: as §1

HLA B*0801 [6] = molecular target: T6, HLA B*0801 (Homo sapiens, UniProt P01889, A93T/A95T/D138N/E176V/E187T/K202T/Q94N/R180D/S35A/V36M/Y33D/Y91F); assay: Multi-parametric analysis iScore; assay type: binding; parameters: scale not given here; details: index integrating t1/2 and ED50
T6 construct: purchased
Method: as §1

HLA A*0101 [7] = molecular target: T7, HLA A*0101 (Homo sapiens, UniProt P04439, A114D/A174V/A182V/D101N/D185E/E176A/E190D/L180R/Q94H/R68K/S129P/T187R/V100A/V91M/W191G); assay: Multi-parametric analysis iScore; assay type: binding; parameters: scale not given here; details: index integrating t1/2 and ED50
T7 construct: purchased
Method: as §1

HLA B*0702 [8] = molecular target: T8, HLA B*0702 (Homo sapiens, UniProt P01889); assay: Multi-parametric analysis iScore; assay type: binding; parameters: scale not given here; details: index integrating t1/2 and ED50
T8 construct: purchased
Method: as §1

HLA B*1501 [9] = molecular target: T1, HLA B*1501; assay: ITOPIA peptide binding assay; details: 1.11×10^−4M of peptide
Method: (§2) Peptide binding, off-rate and affinity were measured according to the protocols described in the ITOPIA Epitope Discovery System Customer Guide. To conduct the experiments, ninety-six (96) micro-titer plates coated with MHC molecules representing the HLA alleles listed in Table 9 were used to identify candidate peptides. Determinations were performed in duplicate using an ELISA plate reader. The peptide binding assay used measures the ability of individual peptides to bind to the HLA molecules under standardized optimal binding conditions. The assay was performed for all the test peptides across the selected HLA alleles. The test peptides identified as “binders” were characterized further in terms of affinity and dissociation experiments. The off-rate assay used evaluates the dissociation of previously bound peptide at defined time points (expressed as the t1/2 value). The affinity assay used measures the relative binding affinities for the MHC molecules determined by incubating candidate peptides identified in the initial peptide binding assay at increasing concentrations (expressed as quantity of peptide needed to achieve 50% binding or ED50 value).
(§3) The binding of the test peptides (Table 8) to the HLA molecules (Table 9) was performed at a concentration of 1.11×10^−4M of peptide under optimal, standardized test conditions. A control peptide was run in parallel on the same plate and at the same concentration as the test peptides. […] The level of binding is expressed as a percent of positive control peptide binding for each allele.

HLA A*0201 [10] = molecular target: T2, HLA A*0201; assay: ITOPIA peptide binding assay; details: 1.11×10^−4M of peptide
Method: as §2, §3

HLA A*2402 [11] = molecular target: T3, HLA A*2402; assay: ITOPIA peptide binding assay; details: 1.11×10^−4M of peptide
Method: as §2, §3

HLA A*1101 [12] = molecular target: T4, HLA A*1101; assay: ITOPIA peptide binding assay; details: 1.11×10^−4M of peptide
Method: as §2, §3

HLA A*0301 [13] = molecular target: T5, HLA A*0301; assay: ITOPIA peptide binding assay; details: 1.11×10^−4M of peptide
Method: as §2, §3

HLA B*0801 [14] = molecular target: T6, HLA B*0801; assay: ITOPIA peptide binding assay; details: 1.11×10^−4M of peptide
Method: as §2, §3

HLA A*0101 [15] = molecular target: T7, HLA A*0101; assay: ITOPIA peptide binding assay; details: 1.11×10^−4M of peptide
Method: as §2, §3

HLA B*0702 [16] = molecular target: T8, HLA B*0702; assay: ITOPIA peptide binding assay; details: 1.11×10^−4M of peptide
Method: as §2, §3

HLA A*0201 [17] = molecular target: T2, HLA A*0201; assay: ITOPIA off-rate assay; assay type: binding; details: 37° C., one-phase exponential decay
Method: as §2
(§4) The peptides initially identified as binders were evaluated for stability based on their ability to remain bound to MHC molecules at 37° C. at time points 0, 0.5, 1, 1.5, 2, 4, 6 and 8 hours. […] The values obtained for each time point (in duplicate) are expressed (Table 11) as a percentage of the positive control. To calculate the t1/2 and goodness-of-fit, as measured by r^2, for each peptide, a one-phase exponential decay curve, with a plateau given equal to 0, was generated using […] PRISM software.

HLA A*2402 [18] = molecular target: T3, HLA A*2402; assay: ITOPIA off-rate assay; assay type: binding; details: 37° C., one-phase exponential decay
Method: as §2, §4

HLA B*0801 [19] = molecular target: T6, HLA B*0801; assay: ITOPIA off-rate assay; assay type: binding; details: 37° C., one-phase exponential decay
Method: as §2, §4

HLA B*0702 [20] = molecular target: T8, HLA B*0702; assay: ITOPIA off-rate assay; assay type: binding; details: 37° C., one-phase exponential decay
Method: as §2, §4

HLA B*1501 [21] = molecular target: T1, HLA B*1501; assay: ITOPIA off-rate assay; assay type: binding; details: 37° C., one-phase exponential decay
Method: as §2, §4

| Sequence | iScore (HLA B*1501 [1]) | iScore (HLA A*0201 [2]) | iScore (HLA A*2402 [3]) | iScore (HLA A*1101 [4]) | iScore (HLA A*0301 [5]) | iScore (HLA B*0801 [6]) | iScore (HLA A*0101 [7]) | iScore (HLA B*0702 [8]) | level of binding, percent of positive control peptide binding (HLA B*1501 [9]) | level of binding, percent of positive control peptide binding (HLA A*0201 [10]) | level of binding, percent of positive control peptide binding (HLA A*2402 [11]) | level of binding, percent of positive control peptide binding (HLA A*1101 [12]) | level of binding, percent of positive control peptide binding (HLA A*0301 [13]) | level of binding, percent of positive control peptide binding (HLA B*0801 [14]) | level of binding, percent of positive control peptide binding (HLA A*0101 [15]) | level of binding, percent of positive control peptide binding (HLA B*0702 [16]) | A*0201 t1/2 (HLA A*0201 [17]) | A*2402 t1/2 (HLA A*2402 [18]) | B*1501 t1/2 (HLA B*1501 [21]) | other results |
| --- | --- | --- | --- | --- | --- | --- | --- | --- | --- | --- | --- | --- | --- | --- | --- | --- | --- | --- | --- | --- |
| ALFYKLDVI [compound 158] | 0 | 0.460 | 0.339 | 0 | 0 | 0 | 0 | 0 | 3% of positive control | 62% of positive control | 99% of positive control | 1% of positive control | 14% of positive control | 5% of positive control | 1% of positive control | 3% of positive control | 5.5 h | 1.1 h | – | – |
| FPRIWLHGL [compound 152] | 0 | 0 | 0 | 0 | 0 | 0.189 | 0 | 0.421 | 3% of positive control | 9% of positive control | 41% of positive control | 0% of positive control | 0% of positive control | 39% of positive control | 0% of positive control | 132% of positive control | – | – | – | B*0801 t1/2 (HLA B*0801 [19]): 1.8 h; B*0702 t1/2 (HLA B*0702 [20]): 1.1 h |
| CSSNITGLL [compound 69] | 0.067 | 0.081 | 0.016 | 0 | 0 | 0 | 0 | 0 | 30% of positive control | 37% of positive control | 26% of positive control | 1% of positive control | 0% of positive control | 4% of positive control | 4% of positive control | 5% of positive control | 0.3 h | 1.1 h | 3.1 h | – |
| CSSNITGLI [compound 154] | 0.112 | 0.114 | 0.038 | 0 | 0 | 0 | 0 | 0 | 40% of positive control | 44% of positive control | 29% of positive control | 1% of positive control | 0% of positive control | 6% of positive control | 5% of positive control | 5% of positive control | 0.4 h | 1.5 h | 3.8 h | – |
